Test results from PubChem BioAssay AID588757 (Broad Institute, 2011).
The source made the active and inactive calls.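 The calls were made as follows: active = compounds whose fitted half-maximal concentration is at most ten times their top valid tested dose; inconclusive = flat fit showing moderate inhibition, or poor fit quality; inactive = the rest.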

Molecular target: Aurora kinase B (Homo sapiens) (UniProt Q96GD4)
Test: Aurora B kinase inhibition counter-screen, dose response, counter-screen for STK33 inhibitor project, biochemical, scintillation, dry powder (AID 588757)
Details: ATP at Km, gamma-32P-ATP, 40 min room temperature, P30 filtermat scintillation counting

Sequence of Aurora kinase B (Homo sapiens) (Q96GD4 whole entry, looked up): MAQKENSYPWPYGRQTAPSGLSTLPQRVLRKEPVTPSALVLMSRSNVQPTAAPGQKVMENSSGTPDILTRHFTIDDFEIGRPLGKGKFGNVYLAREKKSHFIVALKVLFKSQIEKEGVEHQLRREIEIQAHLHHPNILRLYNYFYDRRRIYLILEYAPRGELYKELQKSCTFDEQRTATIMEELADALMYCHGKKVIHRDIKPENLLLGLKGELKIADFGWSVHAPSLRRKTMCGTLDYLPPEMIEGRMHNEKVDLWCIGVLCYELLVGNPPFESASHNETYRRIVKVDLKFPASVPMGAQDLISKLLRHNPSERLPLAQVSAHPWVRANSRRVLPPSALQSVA

Row | Compound | AC50
1 | Nc1nc(-c2cc(O)ccc2[N+](=O)[O-])cc(-c2ccccc2)c1[N+](=O)[O-] | 12.6 nM
2 | CCCn1c(NC(=O)c2cccc(S(=O)(=O)N3CCCC3)c2)nc2ccccc21 | 170 nM
3 | Oc1ccc(Nc2nc(-c3ccccc3O)nc3ccccc23)cc1 | 142 nM
4 | O=C(Nc1ccccc1-c1ccccc1)c1ccc(Br)o1 | 1660 nM

Next, values leading:

Row | AC50 | Compound
5 | 346 nM | Cc1ncc(/C=C2\C(=O)Nc3ccccc32)[nH]1
6 | > 3000 nM (inactive) | CCOc1ccccc1C(=O)Nc1cc(Cl)ccc1O
7 | 1470 nM | CC(C)n1cnc2c(Nc3cccc(Cl)c3)nc(NCCO)nc21

Same assay, conditions: ATP at Km, gamma-32P-ATP, 40 min room temperature, P30 filtermat scintillation counting, at 3 µM (top of the series)

Row | Compound | activity change, negative = inhibition
8 | CC(=O)N(C)c1ccc(N=Cc2c(O)ccc3ccccc23)cc1 | inactive
9 | O=S(=O)(c1cccc2cnccc12)N1CCCNCC1 | inactive

Continued, values first:

Row | activity change, negative = inhibition | Compound
10 | inactive | COc1cc(/C=N/n2c(-c3ccccc3)n[nH]c2=S)ccc1O
11 | inactive | COC(=O)c1ccc(COc2ccccc2/C=C/C(=O)c2ccc(OCC(=O)O)cc2)cc1
12 | inactive | O=C(Nc1ccccc1-c1nc2ccccc2[nH]c1=O)c1cccs1
13 | inactive | COc1cc(C(=O)NC2CCN(C)CC2)ccc1Nc1ncc2c(n1)N(C1CCC(O)CC1)CCC(=O)N2C (centres undefined)
14 | inactive | COc1cc(/C=C2\SC(N)=NC2=O)ccc1O
